Measurements published in patent US20070149435A1, “Cleansing composition including microencapsulated delivery vehicles” (Kimberly-Clark Worldwide, Inc., priority 2005, published 2007).
Read-outs that look alike come from different tables or passages of the source.

What was measured:
[1] = system: Staphylococcus aureus; experiment: Biocidal efficacy of magnesium chloride in combination with PHMB, total plate count; type: cell-based; details: 15-minute contact time
Description: A 1.5-milliliter tube was prepared using magnesium chloride in water.
Two control samples were also prepared. One control sample was filled with 0.850 milliliters magnesium chloride. A second control sample was prepared by introducing 0.850 milliliters sterile water.
The tubes were then vortexed until an increase in temperature was observed.
0.05 milliliters of 1×10^7 CFU/milliliter culture of Staphylococcus aureus was added to each tube. After a 15-minute contact time, 0.1 milliliters of each tube was transferred into 0.9 milliliters letheen broth. To the broth, 10 milligrams/milliliter sodium thiosulfate was also added. The tubes were again vortexed. After vortexing, 0.1 milliliters of each tube was plated on Tryptic soy agar plates. The plates were inverted and incubated at 37° C. for 24 hours. An inoculum control plate was also plated to determine the concentration of the inoculum
After 24 hours, the plates were evaluated using a total plate count to determine the biocidal efficacy of each sample.

[2] = system: Methicillin-resistant Staphylococcus aureus; details: 0.005% PHMB, 10-minute contact time, 5% bovine serum albumin soil, n = 2
Description: This Example utilized 1.5-milliliter tubes containing a 1-milliliter blend of phosphate-buffered saline (pH 7.2) and 5% (w/v) bovine serum albumin soil. The tubes were placed in electric heat blocks set for 22° C., 30° C., 40° C. and 50° C., respectively. The tubes remained in the electric heat blocks for approximately 10 minutes.
After 10 minutes, 0.005% (by weight) active polyhexamehtylene biguanide (PHMB) (commercially available as Cosmocil® CQ from Arch Biocides, Inc., United Kingdom) was added to two tubes at each temperature level. Duplicate tubes without PHMB at each temperature were also made.
The tubes were then vortexed and Methicillin-resistant Staphylococcus aureus (approximately 1×10^5 colony forming units (CFU)) was then added to each tube. All of the tubes were then placed back into the heat blocks at their respective temperatures.
Following a 10-minute contact time, 0.1 milliliters of each sample was transferred to 0.9 milliliters letheen broth to neutralize the PHMB activity. The letheen samples were then plated in duplicate on Tryptic Soy agar plates using a WASP2 spiral plater (commercially available from Don Whitley Scientific, Ltd., Yorkshire, United Kingdom). The plates were inverted and incubated at 37±2° C. for 48 hours.
After 48 hours, the plates were evaluated using a total plate count to determine the biocidal efficacy of each sample.

Compound | LOG10 recovered ([1]; PHMB 0%, magnesium chloride 50%) | LOG10 recovered ([1]; PHMB 0.00025%, magnesium chloride 0%) | Total CFU Recovered MRSA ([2]; 22° C.) | Total CFU Recovered MRSA ([2]; 30° C.) | Total CFU Recovered MRSA ([2]; 40° C.) | Total CFU Recovered MRSA ([2]; 50° C.)
[Cl-].[Cl-].[Mg+2] [Magnesium Chloride, magnesium chloride] | 1.9 | – | – | – | – | –
polyhexamethylene biguanide [PHMB] | – | 4.8 | 3.5 | 2.9 | 2.1 | <2
